In patent publication US20230061736A1, “GPR119 AGONISTS” (Kallyope, Inc., priority 2019, published 2023):

Target: T1, human GPR119 (hGPR119) (Homo sapiens, UniProt Q8TDV5)
T1 construct: expressed in transfected cells
T1 sequence (Q8TDV5 1-335): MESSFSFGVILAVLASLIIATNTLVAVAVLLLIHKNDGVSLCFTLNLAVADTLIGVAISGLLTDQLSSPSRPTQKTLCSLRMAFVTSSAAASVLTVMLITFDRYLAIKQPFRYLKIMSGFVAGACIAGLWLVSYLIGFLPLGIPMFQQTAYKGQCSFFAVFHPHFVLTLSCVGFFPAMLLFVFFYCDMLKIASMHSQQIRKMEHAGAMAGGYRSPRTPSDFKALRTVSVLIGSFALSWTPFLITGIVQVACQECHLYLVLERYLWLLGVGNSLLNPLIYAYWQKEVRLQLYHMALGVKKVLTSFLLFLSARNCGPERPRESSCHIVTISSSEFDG
Experiment: cAMP accumulation assay (cAMP Gs dynamic HTRF kit)
Type: cell-based
Conditions: CHO-K1 cells stably expressing hGPR119, 4-parameter fit; for Emax: 1 h, % activity normalized to Max/Min controls; for EC50: cAMP accumulation
In short: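 Read-out is HTRF 665/620 nm ratio after 1 h detection at ambient temperature, converted to % activity against positive and negative controls, EC50 and Max activity by 4-parameter fit. Compounds were titrated onto ~10,000 thawed hGPR119-CHO-K1 cells/well for 60 min at 37° C/5% CO2.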

Structure (SMILES)	Emax [%]	EC50 [nM]
O=C(NCCNCCC1CN(C(=O)Cc2ccc(OCCCC3CCN(c4ncc(Cl)cn4)CC3)cc2F)C1)NC(CO)(CO)CO [Example 60, 1-(2-((2-(1-(2-(4-(3-(1-(5-chloropyrimidin-2-yl)piperidin-4-yl)propoxy)-2-fluorophenyl)acetyl)azetidin-3-yl)ethyl)amino)ethyl)-3-(1,3-dihydroxy-2-(hydroxymethyl)propan-2-yl)urea]	≥ 130	100 to 1000
O=C(Cc1ccc(OCCCC2CCN(c3ncc(Cl)cn3)CC2)cc1F)N1CC(CCNC[C@H](O)[C@@H](O)[C@H](O)[C@H](O)CO)C1 [Example 61]	100 to 130	100 to 1000
CCc1cnc(N2CCC(CCCOc3ccc(CC(=O)N4CC(CNCC(CO)CO)C4)c(F)c3)CC2)nc1 [Example 62, 2-(4-(3-(1-(5-ethylpyrimidin-2-yl)piperidin-4-yl)propoxy)-2-fluorophenyl)-1-(3-(((3-hydroxy-2-(hydroxymethyl)propyl)amino)methyl)azetidin-1-yl)ethan-1-one]	≥ 130	100 to 1000
CCc1cnc(N2CCC(CCCOc3ccc(CC(=O)N4CC(CNCC(O)(CO)CO)C4)c(F)c3)CC2)nc1 [Example 63, 1-(3-(((2,3-dihydroxy-2-(hydroxymethyl)propyl)amino)methyl)azetidin-1-yl)-2-(4-(3-(1-(5-ethylpyrimidin-2-yl)piperidin-4-yl)propoxy)-2-fluorophenyl)ethan-1-one]	≥ 130	≤ 100
CCc1cnc(N2CCC(CCCOc3ccc(CC(=O)N4CC(CNC(CO)(CO)CO)C4)c(F)c3)CC2)nc1 [Example 64, 1-(3-(((1,3-dihydroxy-2-(hydroxymethyl)propan-2-yl)amino)methyl)azetidin-1-yl)-2-(4-(3-(1-(5-ethylpyrimidin-2-yl)piperidin-4-yl)propoxy)-2-fluorophenyl)ethan-1-one]	≥ 130	≤ 100
CCc1cnc(N2CCC(CCCOc3ccc(CC(=O)N4CC(CNCCNC(=O)NC(CO)(CO)CO)C4)c(F)c3)CC2)nc1 [Example 65, 1-(1,3-dihydroxy-2-(hydroxymethyl)propan-2-yl)-3-(2-(((1-(2-(4-(3-(1-(5-ethylpyrimidin-2-yl)piperidin-4-yl)propoxy)-2-fluorophenyl)acetyl)azetidin-3-yl)methyl)amino)ethyl)urea]	100 to 130	≤ 100
CCc1cnc(N2CCC(CCCOc3cc(F)c(CC(=O)N4CC(CNCC(O)(CO)CO)C4)c(F)c3)CC2)nc1 [Example 67, 1-(3-(((2,3-dihydroxy-2-(hydroxymethyl)propyl)amino)methyl)azetidin-1-yl)-2-(4-(3-(1-(5-ethylpyrimidin-2-yl)piperidin-4-yl)propoxy)-2,6-difluorophenyl)ethan-1-one]	100 to 130	≤ 100
CCc1cnc(N2CCC(CCCOc3cc(F)c(CC(=O)N4CC(CNCCNC(=O)NC(CO)(CO)CO)C4)c(F)c3)CC2)nc1 [Example 68, 1-(1,3-dihydroxy-2-(hydroxymethyl)propan-2-yl)-3-(2-(((1-(2-(4-(3-(1-(5-ethylpyrimidin-2-yl)piperidin-4-yl)propoxy)-2,6-difluorophenyl)acetyl)azetidin-3-yl)methyl)amino)ethyl)urea]	≥ 130	≤ 100
CCCc1cnc(N2CCC(CCCOc3ccc(CC(=O)N4CC(CNCC(CO)CO)C4)c(F)c3)CC2)nc1 [Example 70, 2-(2-fluoro-4-(3-(1-(5-propylpyrimidin-2-yl)piperidin-4-yl)propoxy)phenyl)-1-(3-(((3-hydroxy-2-(hydroxymethyl)propyl)amino)methyl)azetidin-1-yl)ethan-1-one]	100 to 130	≤ 100
CCCc1cnc(N2CCC(CCCOc3ccc(CC(=O)N4CC(CNCC(O)(CO)CO)C4)c(F)c3)CC2)nc1 [Example 71, 1-(3-(((2,3-dihydroxy-2-(hydroxymethyl)propyl)amino)methyl)azetidin-1-yl)-2-(2-fluoro-4-(3-(1-(5-propylpyrimidin-2-yl)piperidin-4-yl)propoxy)phenyl)ethan-1-one]	100 to 130	≤ 100
CCCc1cnc(N2CCC(CCCOc3ccc(CC(=O)N4CC(CNC(CO)(CO)CO)C4)c(F)c3)CC2)nc1 [Example 72, 1-(3-(((1,3-dihydroxy-2-(hydroxymethyl)propan-2-yl)amino)methyl)azetidin-1-yl)-2-(2-fluoro-4-(3-(1-(5-propylpyrimidin-2-yl)piperidin-4-yl)propoxy)phenyl)ethan-1-one]	≥ 130	≤ 100
CCCc1cnc(N2CCC(CCCOc3ccc(CC(=O)N4CC(CNCCNC(=O)NC(CO)(CO)CO)C4)c(F)c3)CC2)nc1 [Example 73, 1-(1,3-dihydroxy-2-(hydroxymethyl)propan-2-yl)-3-(2-(((1-(2-(2-fluoro-4-(3-(1-(5-propylpyrimidin-2-yl)piperidin-4-yl)propoxy)phenyl)acetyl)azetidin-3-yl)methyl)amino)ethyl)urea]	100 to 130	100 to 1000
CCCc1cnc(N2CCC(CCCOc3ccc(CC(=O)N4CC(CNC[C@H](O)[C@@H](O)[C@H](O)[C@H](O)CO)C4)c(F)c3)CC2)nc1 [Example 74, 2-(2-fluoro-4-(3-(1-(5-propylpyrimidin-2-yl)piperidin-4-yl)propoxy)phenyl)-1-(3-((((2S,3R,4R,5R)-2,3,4,5,6-pentahydroxyhexyl)amino)methyl)azetidin-1-yl)ethan-1-one]	≥ 130	100 to 1000
CCCc1cnc(N2CCC(CCCOc3cc(F)c(CC(=O)N4CC(CNCC(O)(CO)CO)C4)c(F)c3)CC2)nc1 [Example 75, 2-(2,6-difluoro-4-(3-(1-(5-propylpyrimidin-2-yl)piperidin-4-yl)propoxy)phenyl)-1-(3-(((2,3-dihydroxy-2-(hydroxymethyl)propyl)amino)methyl)azetidin-1-yl)ethan-1-one]	100 to 130	≤ 100
CCCc1cnc(N2CCC(CCCOc3cc(F)c(CC(=O)N4CC(CNC(CO)(CO)CO)C4)c(F)c3)CC2)nc1 [Example 76, 2-(2,6-difluoro-4-(3-(1-(5-propylpyrimidin-2-yl)piperidin-4-yl)propoxy)phenyl)-1-(3-(((1,3-dihydroxy-2-(hydroxymethyl)propan-2-yl)amino)methyl)azetidin-1-yl)ethan-1-one]	≥ 130	≤ 100
CCCc1cnc(N2CCC(CCCOc3cc(F)c(CC(=O)N4CC(CNCCNC(=O)NC(CO)(CO)CO)C4)c(F)c3)CC2)nc1 [Example 77, 1-(2-(((1-(2-(2,6-difluoro-4-(3-(1-(5-propylpyrimidin-2-yl)piperidin-4-yl)propoxy)phenyl)acetyl)azetidin-3-yl)methyl)amino)ethyl)-3-(1,3-dihydroxy-2-(hydroxymethyl)propan-2-yl)urea]	≥ 130	100 to 1000
CCCc1cnc(N2CCC(CCCOc3cc(F)c(CC(=O)N4CC(CNC[C@H](O)[C@@H](O)[C@H](O)[C@H](O)CO)C4)c(F)c3)CC2)nc1 [Example 78, 2-(2,6-difluoro-4-(3-(1-(5-propylpyrimidin-2-yl)piperidin-4-yl)propoxy)phenyl)-1-(3-((((2S,3R,4R,5R)-2,3,4,5,6-pentahydroxyhexyl)amino)methyl)azetidin-1-yl)ethan-1-one]	100 to 130	≤ 100
COCc1cnc(N2CCC(CCCOc3ccc(CC(=O)N4CC(CNCCNC(=O)NC(CO)(CO)CO)C4)c(F)c3)CC2)nc1 [Example 81, 1-[2-[[1-[2-[2-fluoro-4-[3-[1-[5-(methoxymethyl)pyrimidin-2-yl]-4-piperidyl]propoxy]phenyl]acetyl]azetidin-3-yl]methylamino]ethyl]-3-[2-hydroxy-1,1-bis(hydroxymethyl)ethyl]urea]	100 to 130	
COCc1cnc(N2CCC(CCCOc3ccc(CC(=O)N4CC(CNCC[C@@H](O)C[C@@H](O)CC(=O)O)C4)c(F)c3)CC2)nc1 [Example 82, (3R,5R)-7-[[1-[2-[2-fluoro-4-[3-[1-[5-(methoxymethyl)pyrimidin-2-yl]-4-piperidyl]propoxy]phenyl]acetyl]azetidin-3-yl]methylamino]-3,5-dihydroxy-heptanoicacid]	50 to 100	100 to 1000
COC(=O)c1cnc(N2CCC(CCCOc3ccc(CC(=O)N4CC(CNC[C@H](O)[C@@H](O)[C@H](O)[C@H](O)CO)C4)c(F)c3)CC2)nc1 [Example 87, methyl 2-[4-[3-[3-fluoro-4-[2-oxo-2-[3-[[[(2S,3R,4R,5R)-2,3,4,5,6-pentahydroxyhexyl]amino]methyl]azetidin-1-yl]ethyl]phenoxy]propyl]-1-piperidyl]pyrimidine-5-carboxylate]	100 to 130	100 to 1000
CCc1cnc(N2CCC(CCOCc3ccc(CC(=O)N4CC(CNC[C@@H](O)[C@H](O)[C@@H](O)[C@@H](O)CO)C4)c(F)c3)CC2)nc1 [Example 88]	50 to 100	1000 to 10000
CCc1cnc(N2CCC(CCOCc3ccc(CC(=O)N4CC(CNC[C@H](O)[C@@H](O)[C@H](O)[C@H](O)CO)C4)cc3F)CC2)nc1 [Example 89]	50 to 100	1000 to 10000
O=C(Cc1ccc(COCCCC2CCN(c3ncc(Cl)cn3)CC2)cc1F)N1CC(CNC[C@H](O)[C@@H](O)[C@H](O)[C@H](O)CO)C1 [Example 90, 2-[4-[3-[1-(5-chloropyrimidin-2-yl)-4-piperidyl]propoxymethyl]-2-fluoro-phenyl]-1-[3-[[[(2S,3R,4R,5R)-2,3,4,5,6-pentahydroxyhexyl]amino]methyl]azetidin-1-yl]ethanone]	50 to 100	100 to 1000
